Results as given in US10688099B2, “Methods for modulating the amount of RNA transcripts” (PTC Therapeutics, Inc., priority 2013, dated 2020).

System: RNA isoforms in PNN 1-46 SMA type I patient-derived fibroblasts
Assay: RNA Abundance Modulation (RNA isoform abundance, iFPM, HiSeq RNA sequencing)
Type: cell-based, human
Conditions: 3 μM
Experimental: Cells from a cell line of interest are cultured in conditions sufficient to yield the number of cells capable of generating enough RNA for subsequent sequencing steps. Cells from the tested cell line are contacted with a compound described herein.
To culture said cells, they are seeded, at appropriate concentrations in a volume of media in a cell culture container and incubated for 4, 5, 6, 7, 8, 9, 10, or more hours. A concentrated solution of compound in a vehicle (e.g., DMSO) is then added in sufficient volume to result in the intended final concentration of the compound, for example 100 nM, 500 nM, 1 μM, 5 μM, 10 μM, 15 μM, 20 μM, or more. The cells may also be treated with vehicle alone, as a control. A number of replicates of each concentration or control may be made (e.g., 2 replicates). The cells are then incubated at a constant temperature appropriate for cell culture of the particular cell line (e.g., 37° C.) for 6, 12, 18, 24, 48, or more hours. After incubation, the growth medium is removed and the cells are washed with the appropriate buffer (e.g., PBS). Cells are then removed from adherence to the cell culture container by treatment with a solution containing trypsin, and the trypsin subsequently quenched with the appropriate volume of buffer (e.g., DMEM-FBS). The cells are then pelleted with gentle centrifugation (e.g., ≤90×g centrifugal force) and resuspended in a buffer to lyse the cells for extraction of RNA. The cell lysates may then be frozen (e.g., at −80° C.) or, alternately, may immediately be used in a procedure to purify the RNA (e.g. by use of the RNEASY PLUS® minikit). The RNA from cell lysates is eluted in the appropriate volume of buffer (e.g., RNEASE-FREE H2O®). The resulting purified RNA may then be sequenced (e.g., using RNASeq) or analyzed using a human exon array (e.g., by GENECHIP® human exon array) to determine changes in the RNA levels in those cells treated with compound compared to those cells treated only with DMSO. The purified RNA may also be quantified by other methods known in the art.
Using the RNA data obtained from sequencing, exon array, or other methods, a statistical analysis can reveal changes in the RNA levels of compound-treated compared with control. For example, t-test p-values may be calculated for the data obtained through sequencing and exon array methods in order to compare compound-treated cells to those treated with the DMSO control. […] Analysis of the sequencing and exon array data may then also yield predictions about the cause of the aberrant amount of an RNA transcript in the cells (e.g., perturbation of RNA splicing, RNA transcription, or RNA stability). These predictions may be further confirmed by methods known in the art. For example, RT-PCR and RT-qPCR may be used to confirm the change in amount of RNA transcripts for one or more particular transcripts of interest.
Following the methods described above in Example 1, PNN 1-46 SMA type I patient-derived fibroblasts were treated with 300 nM or 3 μM Compounds 774 and 808 in 0.5% DMSO.
700,000 cells were seeded in 10 mL of medium (DMEM plus 10% FBS) in a T-75 flask. Cells were allowed to attach for at least 4 hrs, after which 50 μL of a 200× compound solution (100% DMSO) was added to each well, and the plate was incubated at 37° C. for 24 hrs.
At the end of the incubation period, the supernatant was removed and the cells where washed with PBS. TrypLE (Invitrogen) express solution was added (e.g. 1.5 mL per one T75 flask). The flasks were incubated for 3 to 5 min at 37° C. The trypsin was then quenched, e.g., by adding 10 mL DMEM-FBS.
Next, the cells were pelleted using gentle centrifugation without exceeding 90×g centrifugal force. The supernatant was removed and the cell pellet was re-suspended in 600 μL RLT buffer (the RLT buffer was supplemented with beta-mercaptoethanol according to the RNeasy protocol manual) by pipetting up and down until the pellet was completely dissolved […]

## CCc1nc(C)cn2nc(-c3cc(=O)n4cc(C5CCN(C)CC5)cc(C)c4n3)cc12 [Compound 774]
TGFBRAP1 NM_004257
  amp FC (x + 1): 156.98
  ave Cpd: 0 iFPM
TGFBRAP1 NM_001142621
  FC (x + 1): 1.6224
  L2FC (x + 1): 0.698
  L2abs (Cpd-DMSO): 7.42
  abs (Cpd-DMSO): 172 iFPM
  amp FC (x + 1): 1.62
  ave Cpd: 446 iFPM
THADA AK025445
  FC (x + 1): 0.2651
  L2FC (x + 1): −1.915
  L2abs (Cpd-DMSO): 5.17
  abs (Cpd-DMSO): 36 iFPM
  amp FC (x + 1): 3.77
  ave Cpd: 12 iFPM
THADA AK126824
  FC (x + 1): 0.1808
  L2FC (x + 1): −2.468
  L2abs (Cpd-DMSO): 2.55
  abs (Cpd-DMSO): 6 iFPM
  amp FC (x + 1): 5.53
  ave Cpd: 0 iFPM
THADA AK307915
  FC (x + 1): 0.2071
  L2FC (x + 1): −2.272
  L2abs (Cpd-DMSO): 3.71
  abs (Cpd-DMSO): 13 iFPM
  amp FC (x + 1): 4.83
  ave Cpd: 2 iFPM
THADA AL832141
  FC (x + 1): 1.7328
  L2FC (x + 1): 0.793
  L2abs (Cpd-DMSO): 0.72
  abs (Cpd-DMSO): 2 iFPM
  amp FC (x + 1): 1.73
  ave Cpd: 3 iFPM
THADA AY149632
  FC (x + 1): 1.0000
  L2FC (x + 1): 0.000
  L2abs (Cpd-DMSO): 0
  abs (Cpd-DMSO): 0 iFPM
  amp FC (x + 1): 1.00
  ave Cpd: 0 iFPM
THADA BX641038
  FC (x + 1): 0.6958
  L2FC (x + 1): −0.523
  L2abs (Cpd-DMSO): 0.60
  abs (Cpd-DMSO): 2 iFPM
  amp FC (x + 1): 1.44
  ave Cpd: 2 iFPM
THADA NM_022065
  FC (x + 1): 0.3170
  L2FC (x + 1): −1.658
  L2abs (Cpd-DMSO): 9.36
  abs (Cpd-DMSO): 657 iFPM
  amp FC (x + 1): 3.15
  ave Cpd: 304 iFPM
THADA NM_001083953
  FC (x + 1): 0.0135
  L2FC (x + 1): −6.211
  L2abs (Cpd-DMSO): 6.19
  abs (Cpd-DMSO): 73 iFPM
  amp FC (x + 1): 74.06
  ave Cpd: 0 iFPM
THADA NM_001271643
  FC (x + 1): 1.1557
  L2FC (x + 1): 0.209
  L2abs (Cpd-DMSO): 2.41
  abs (Cpd-DMSO): 5 iFPM
  amp FC (x + 1): 1.16
  ave Cpd: 38 iFPM
THADA NM_001271644
  FC (x + 1): 4.4176
  L2FC (x + 1): 2.143
  L2abs (Cpd-DMSO): 3.80
  abs (Cpd-DMSO): 14 iFPM
  amp FC (x + 1): 4.42
  ave Cpd: 17 iFPM
THADA NR_073394
  FC (x + 1): 0.6844
  L2FC (x + 1): −0.547
  L2abs (Cpd-DMSO): −0.13
  abs (Cpd-DMSO): 1 iFPM
  amp FC (x + 1): 1.46
  ave Cpd: 1 iFPM
TIMP2 AK294290
  FC (x + 1): 0.0109
  L2FC (x + 1): −6.520
  L2abs (Cpd-DMSO): 6.50
  abs (Cpd-DMSO): 91 iFPM
  amp FC (x + 1): 91.79
  ave Cpd: 0 iFPM
TIMP2 BC039613
  FC (x + 1): 0.9284
  L2FC (x + 1): −0.107
  L2abs (Cpd-DMSO): 11.17
  abs (Cpd-DMSO): 2306 iFPM
  amp FC (x + 1): 1.08
  ave Cpd: 29887 iFPM
TIMP2 NM_003255
  FC (x + 1): 0.9585
  L2FC (x + 1): −0.061
  L2abs (Cpd-DMSO): 9.77
  abs (Cpd-DMSO): 876 iFPM
  amp FC (x + 1): 1.04
  ave Cpd: 20235 iFPM
TLK1 AK091975
  FC (x + 1): 0.7110
  L2FC (x + 1): −0.492
  L2abs (Cpd-DMSO): 6.56
  abs (Cpd-DMSO): 95 iFPM
  amp FC (x + 1): 1.41
  ave Cpd: 232 iFPM
TLK1 BX537631
  FC (x + 1): 1.2332
  L2FC (x + 1): 0.302
  L2abs (Cpd-DMSO): 0.14
  abs (Cpd-DMSO): 1 iFPM
  amp FC (x + 1): 1.23
  ave Cpd: 5 iFPM
TLK1 E09283
  FC (x + 1): 1.1041
  L2FC (x + 1): 0.143
  L2abs (Cpd-DMSO): 1.54
  abs (Cpd-DMSO): 3 iFPM
  amp FC (x + 1): 1.10
  ave Cpd: 30 iFPM
TLK1 NM_012290
  FC (x + 1): 1.4535
  L2FC (x + 1): 0.540
  L2abs (Cpd-DMSO): 8.52
  abs (Cpd-DMSO): 367 iFPM
  amp FC (x + 1): 1.45
  ave Cpd: 1174 iFPM
TLK1 NM_001136554
  FC (x + 1): 0.3744
  L2FC (x + 1): −1.417
  L2abs (Cpd-DMSO): 8.77
  abs (Cpd-DMSO): 437 iFPM
  amp FC (x + 1): 2.67
  ave Cpd: 260 iFPM
TLK1 NM_001136555
  FC (x + 1): 4.0350
  L2FC (x + 1): 2.013
  L2abs (Cpd-DMSO): 6.40
  abs (Cpd-DMSO): 84 iFPM
  amp FC (x + 1): 4.04
  ave Cpd: 111 iFPM
TMEM154 NM_152680
  FC (x + 1): 2.2609
  L2FC (x + 1): 1.177
  L2abs (Cpd-DMSO): 8.26
  abs (Cpd-DMSO): 306 iFPM
  amp FC (x + 1): 2.26
  ave Cpd: 548 iFPM
TNS3 NM_022748
  FC (x + 1): 0.1472
  L2FC (x + 1): −2.764
  L2abs (Cpd-DMSO): 9.92
  abs (Cpd-DMSO): 971 iFPM
  amp FC (x + 1): 6.79
  ave Cpd: 167 iFPM
TOMM5 CCDS47968
  FC (x + 1): 0.9090
  L2FC (x + 1): −0.138
  L2abs (Cpd-DMSO): −2.28
  abs (Cpd-DMSO): 0 iFPM
  amp FC (x + 1): 1.10
  ave Cpd: 1 iFPM
TOMM5 CR627326
  FC (x + 1): 0.4244
  L2FC (x + 1): −1.236
  L2abs (Cpd-DMSO): 2.64
  abs (Cpd-DMSO): 6 iFPM
